Laboratory results reported in patent US12398111B2, “Triazine compounds and pharmaceutical use thereof” (Japan Tobacco Inc., priority 2014, dated 2025).

These compounds were tested against T1, human mPGES-1 (Homo sapiens, UniProt O14684) (assay: Evaluation of human mPGES-1 enzyme inhibitory activity (PGE2 measured by HTRF, microsome fraction of CHO-S cells expressing human mPGES-1)). Conditions: IC50 value; microsome fraction of CHO-S cells expressing human mPGES-1, PGE2 by HTRF.
T1 construct: made in house; host or cells: FreeStyle CHO-S cells (Chinese hamster ovary), transient transfection with pcDNA3.1(+)/human mPGES-1; microsome fraction used
T1 sequence (O14684 1-152): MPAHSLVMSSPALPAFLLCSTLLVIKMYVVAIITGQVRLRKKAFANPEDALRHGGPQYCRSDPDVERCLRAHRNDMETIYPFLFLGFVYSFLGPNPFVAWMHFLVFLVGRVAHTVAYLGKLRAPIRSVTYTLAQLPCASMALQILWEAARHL
Type: biochemical
Procedure, shortened: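 Enzyme source: microsomes from CHO-S cells transfected with human mPGES-1 and cultured 48 hr, diluted to 5 μg/mL protein in reduced GSH (12.5 mmol/L KPB solution). Test articles were in 0.1 mol/L potassium phosphate pH 7.4, final DMSO 2% (v/v). PGE2 formed was quantified by HTRF.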

| IC50 [nM] | SMILES |
| --- | --- |
| 848 | CCC(CC)C(=O)N(C)Cc1ccc(Cl)c(-c2nc(O)nc(-c3ccccc3)n2)c1 [Example 1-233] |
| 1000 | COC(C)(C)C(=O)N(C)Cc1ccc(Cl)c(-c2nc(O)nc(-c3ccccc3)n2)c1 [Example 1-234] |
| 70 | CCN(Cc1ccc(Cl)c(-c2nc(O)nc(-c3ccc(OCC(C)(C)C)cc3)n2)c1)C(=O)C(C)(C)C(F)(F)F [Example 1-235] |
| 263 | CC1(C)CN(Cc2ccc(Cl)c(-c3nc(O)nc(-c4ccccc4)n3)c2)C1=O [Example 1-236] |
| 1300 | CN(Cc1ccc(Cl)c(-c2nc(O)nc(-c3ccccc3)n2)c1)C(=O)C(C)(C)c1ccccc1 [Example 1-237] |
| 7.4 | CN(Cc1ccc(Cl)c(-c2nc(O)nc(-c3ccccc3)n2)c1)C(=O)C1(C(F)(F)F)CCCC1 [Example 1-238] |
| 428 | COCC(C)(C)C(=O)N(C)Cc1ccc(Cl)c(-c2nc(O)nc(-c3ccccc3)n2)c1 [Example 1-239] |
| 428 | CC1(C)CCN(Cc2ccc(Cl)c(-c3nc(O)nc(-c4ccccc4)n3)c2)C1=O [Example 1-240] |
| 278 | CC1(C)CCCN(Cc2ccc(Cl)c(-c3nc(O)nc(-c4ccccc4)n3)c2)C1=O [Example 1-241] |
| 82 | CO[C@](C)(C(=O)N(C)Cc1ccc(Cl)c(-c2nc(O)nc(-c3ccccc3)n2)c1)C(F)(F)F [Example 1-242] |
| 120 | CO[C@@](C)(C(=O)N(C)Cc1ccc(Cl)c(-c2nc(O)nc(-c3ccccc3)n2)c1)C(F)(F)F [Example 1-243] |
| 21 | CN(Cc1ccc(Cl)c(-c2nc(O)nc(-c3ccccc3)n2)c1)C(=O)C1(C(F)(F)F)CCCCC1 [Example 1-244] |
| 108 | CCCC(C)(C)C(=O)N(C)Cc1ccc(Cl)c(-c2nc(O)nc(-c3ccccc3)n2)c1 [Example 1-245] |
| 307 | CN(Cc1ccc(Cl)c(-c2nc(O)nc(-c3ccccc3)n2)c1)C(=O)C1Cc2ccccc2C1 [Example 1-246] |
| 11 | O=C(NCc1ccc(Cl)c(-c2nc(O)nc(-c3ccccc3)n2)c1)C1(CO)CCCCC1 [Example 1-247] |
| 16 | O=C1N(Cc2ccc(Cl)c(-c3nc(O)nc(-c4ccccc4)n3)c2)CC12CCCCC2 [Example 1-248] |
| 226 | CN(Cc1ccc(Cl)c(-c2nc(O)nc(-c3ccccc3)n2)c1)C(=O)C(C)(C)Cc1ccccc1 [Example 1-249] |
| 12 | CCC(CC)(CO)C(=O)NCc1ccc(Cl)c(-c2nc(O)nc(-c3ccccc3)n2)c1 [Example 1-250] |
| 18 | CCC1(CC)CN(Cc2ccc(Cl)c(-c3nc(O)nc(-c4ccccc4)n3)c2)C1=O [Example 1-251] |
| 511 | CCO[C@](C)(C(=O)N(C)Cc1ccc(Cl)c(-c2nc(O)nc(-c3ccccc3)n2)c1)C(F)(F)F [Example 1-252] |
| 791 | CCO[C@@](C)(C(=O)N(C)Cc1ccc(Cl)c(-c2nc(O)nc(-c3ccccc3)n2)c1)C(F)(F)F [Example 1-253] |
| 30 | O=C(NCc1ccc(Cl)c(-c2nc(O)nc(-c3ccccc3)n2)c1)C1(CO)CCCC1 [Example 1-254] |
| 45 | O=C1N(Cc2ccc(Cl)c(-c3nc(O)nc(-c4ccccc4)n3)c2)CC12CCCC2 [Example 1-255] |
| 1900 | CC1(C)C(=O)N(Cc2ccc(Cl)c(-c3nc(O)nc(-c4ccccc4)n3)c2)c2ccccc21 [Example 1-258, 1-[4-chloro-3-(4-hydroxy-6-phenyl-1,3,5-triazin-2-yl)-benzyl]-3,3-dimethyl-1,3-dihydroindol-2-one] |

| IC50 [nM] | SMILES |
| --- | --- |
| 176 | CCCC(CO)(CCC)C(=O)NCc1ccc(Cl)c(-c2nc(O)nc(-c3ccccc3)n2)c1 [Example 1-259] |
| 147 | CCCC1(CCC)CN(Cc2ccc(Cl)c(-c3nc(O)nc(-c4ccccc4)n3)c2)C1=O [Example 1-260] |
| 7 | CC1(C(=O)NCc2ccc(Cl)c(-c3nc(O)nc(-c4ccccc4)n3)c2)Cc2ccccc2C1 [Example 1-262] |
| 702 | CCN(Cc1ccc(Cl)c(-c2nc(O)nc(-c3ccccc3)n2)c1)C(=O)C(C)(C)C(F)(F)F [Example 1-263, N-[4-chloro-3-(4-hydroxy-6-phenyl-1,3,5-triazin-2-yl)benzyl]-N-ethyl-3,3,3-trifluoro-2,2-dimethylpropionamide] |
| 163 | CN(Cc1ccc(Cl)c(-c2nc(O)nc(-c3ccccc3)n2)c1)C(=O)C1(C)Cc2ccccc2C1 [Example 1-264] |
| 56 | CC(C)(C)OC(=O)N1CCC2(CC1)CCN(Cc1ccc(Cl)c(-c3nc(O)nc(-c4ccccc4)n3)c1)C2=O [Example 1-265] |
| 283 | Cc1cccc(C)c1-c1nc(O)nc(-c2ccc(C(F)(F)F)cc2)n1 [Example 2-1] |
| 21300 | Cc1cccc(C)c1-c1nc(O)nc(-c2ccccc2)n1 [Example 2-2] |
| 14700 | Cc1cc(C(F)(F)F)ccc1-c1nc(O)nc(-c2c(C)cccc2C)n1 [Example 2-3] |
| 66 | COc1cccc(Cl)c1-c1nc(O)nc(-c2ccc(C(F)(F)F)cc2)n1 [Example 2-4] |
| 101 | Cc1cccc(C)c1-c1nc(O)nc(-c2ccc(OCc3ccccc3)cc2)n1 [Example 2-5] |
| 3500 | Cc1cccc(C)c1-c1nc(O)nc(-c2ccc(C(C)(C)C)cc2)n1 [Example 2-7] |
| 1900 | Cc1cccc(C)c1-c1nc(O)nc(-c2ccc(C(C)C)cc2)n1 [Example 2-8] |
| 6400 | Cc1cccc(C)c1-c1nc(O)nc(-c2ccc(C(F)(F)F)cc2F)n1 [Example 2-9] |
| 73 | Oc1nc(-c2ccc(C(F)(F)F)cc2)nc(-c2c(F)cccc2Cl)n1 [Example 2-10] |
| 6 | Cc1cccc(C)c1-c1nc(O)nc(-c2ccc(C#Cc3ccccc3)cc2)n1 [Example 2-11] |
| 141 | Cc1cccc(C)c1-c1nc(O)nc(-c2ccc(CCc3ccccc3)cc2)n1 [Example 2-12] |
| 23100 | Cc1cccc(-c2nc(O)nc(-c3c(C)cccc3C)n2)c1 [Example 2-13] |
| 14300 | COc1cccc(-c2nc(O)nc(-c3c(C)cccc3C)n2)c1 [Example 2-14] |
| 16400 | Cc1cccc(C)c1-c1nc(O)nc(-c2cccc(F)c2)n1 [Example 2-15] |
| 412 | Oc1nc(-c2ccc(C(F)(F)F)cc2)nc(-c2c(O)cccc2Cl)n1 [Example 2-16] |
| 39 | CCOc1cccc(Cl)c1-c1nc(O)nc(-c2ccc(C(F)(F)F)cc2)n1 [Example 2-17] |
| 8 | Cc1cccc(C)c1-c1nc(O)nc(-c2ccc(C#CC3CCCCC3)cc2)n1 [Example 2-18] |
| 211 | Cc1cccc(Cl)c1-c1nc(O)nc(-c2ccc(C(F)(F)F)cc2)n1 [Example 2-19] |

| IC50 [nM] | SMILES |
| --- | --- |
| 52 | CCCOc1cccc(Cl)c1-c1nc(O)nc(-c2ccc(C(F)(F)F)cc2)n1 [Example 2-20] |
| 341 | CC(C)Oc1cccc(Cl)c1-c1nc(O)nc(-c2ccc(C(F)(F)F)cc2)n1 [Example 2-21] |
| 219 | OCCOc1cccc(Cl)c1-c1nc(O)nc(-c2ccc(C(F)(F)F)cc2)n1 [Example 2-22] |
| 155 | OCCCOc1cccc(Cl)c1-c1nc(O)nc(-c2ccc(C(F)(F)F)cc2)n1 [Example 2-23] |
| 2400 | Cc1cccc(C)c1-c1nc(O)nc(-c2ccc(F)cc2)n1 [Example 2-24] |
| 249 | Cc1cccc(C)c1-c1nc(O)nc(-c2ccc(Cl)cc2)n1 [Example 2-25] |
| 2700 | Cc1ccc(-c2nc(O)nc(-c3c(C)cccc3C)n2)cc1 [Example 2-26] |
| 7700 | COc1ccc(-c2nc(O)nc(-c3c(C)cccc3C)n2)cc1 [Example 2-27] |
| 3700 | Cc1cccc(C)c1-c1nc(O)nc(-c2cccc(C(F)(F)F)c2)n1 [Example 2-28] |
| 503 | Cc1cccc(C)c1-c1nc(O)nc(-c2cccc(OCc3ccccc3)c2)n1 [Example 2-29] |
| 31 | CCCCOc1cccc(Cl)c1-c1nc(O)nc(-c2ccc(C(F)(F)F)cc2)n1 [Example 2-31] |
| 14 | Oc1nc(-c2ccc(C(F)(F)F)cc2)nc(-c2c(Cl)cccc2OCc2ccccc2)n1 [Example 2-32] |
| 102 | CC(C)COc1cccc(Cl)c1-c1nc(O)nc(-c2ccc(C(F)(F)F)cc2)n1 [Example 2-33] |
| 163 | COCCOc1cccc(Cl)c1-c1nc(O)nc(-c2ccc(C(F)(F)F)cc2)n1 [Example 2-34] |
| 17 | COc1cccc(Cl)c1-c1nc(O)nc(-c2ccc(OCc3ccccc3)cc2)n1 [Example 2-35] |
| 53 | Oc1nc(-c2ccc(C(F)(F)F)cc2)nc(-c2c(Cl)cccc2OCC(F)(F)F)n1 [Example 2-36] |
| 41 | Cc1cccc(C)c1-c1nc(O)nc(-c2ccc(OCC3CCCCC3)cc2)n1 [Example 2-37] |
| 1000 | Cc1cccc(C)c1-c1nc(O)nc(-c2ccc(OC(C)C)cc2)n1 [Example 2-38] |
| 450 | Cc1cccc(C)c1-c1nc(O)nc(-c2ccc(CC(C)C)cc2)n1 [Example 2-39] |
| 1300 | CCOc1ccc(-c2nc(O)nc(-c3c(C)cccc3C)n2)cc1 [Example 2-40] |
| 429 | CCCOc1ccc(-c2nc(O)nc(-c3c(C)cccc3C)n2)cc1 [Example 2-41] |
| 239 | Cc1cccc(C)c1-c1nc(O)nc(-c2ccc(OCC(C)C)cc2)n1 [Example 2-42] |
| 570 | Cc1cccc(C)c1-c1nc(O)nc(-c2ccc(O[C@@H](C)c3ccccc3)cc2)n1 [Example 2-43] |

Same assay, conditions: at 30 μM test article

| inhibition at 30 µM [%] | SMILES |
| --- | --- |
| 44 | CCC(=O)N(CC)Cc1ccc(Cl)c(-c2nc(O)nc(-c3ccccc3)n2)c1 [Example 1-261] |
| 28 | Cc1cccc(C)c1-c1nc(O)nc(-c2ccc(O)cc2)n1 [Example 2-6] |
| 43 | Cc1cccc(C)c1-c1nc(O)nc(-c2cccc(O)c2)n1 [Example 2-30] |
